Legend:
P-gp = target: T1, P-gp (Homo sapiens, UniProt P08183); assay: MDR1-MDCK P-gp transwell bidirectional transport assay; format: in vitro ADME; details: 10 μM, 90 min; for Papp A→B at 90 min, 10 µM / Papp B→A at 90 min, 10 µM / efflux ratio at 90 min, 10 µM: dog, MDCK-MDR1, MDR1-MDCK; for efflux ratio at 90 min, 10 µM: read-out: ER (efflux ratio) (converted)
T1 construct: host or cells: MDCK (MDR1-MDCK)
Protocol: A novel compound collection composed of complex and diverse compounds derived from natural products, termed “Complexity-to-Diversity Collection” was employed. […] The CtD compounds were evaluated by the efflux pump and their permeability using the P-gp transwell assay using adapted and optimized known protocols. Compound transport across epithelial cells overexpressing P-gp from basolateral-to-apical and apical-to-basolateral directions were quantified to calculate permeability and efflux ratio.
P-gp transwell bidirectional transport assays. Unless noted otherwise, the transport assay was performed in triplicate in batches of 16 or 24 test compounds, with each batch containing quinidine as a substrate control and propranolol as a non-substrate control. MDR1-MDCK cells were plated at a density of 300,000 cells/cm^2 onto 96-well Falcon™ Multiwell Insert System with 1 µm pore polycarbonate filters with angled-bottom receiver plates (Coming) and were fed with the cell growth medium on day 2.
The donor solution was prepared by adding 1 mM DMSO stocks of compounds to make the final concentration […], and the receiver solution was prepared with equivalent volume of DMSO to make 1% DMSO in final assay chamber volumes.
After 80-96 hours since seeding, the growth media on both sides was aspirated. To the transwell plate (apical side), 50 μL of receiver and donor solutions prepared on a 96-well plate were added, and it was placed on top of a separate angled-bottom 96-well plate (basolateral side) containing 260 μL of receiver and donor solutions.
Following 90 minutes of incubation at 37° C. with shaking at 90 rpm, 20 μL aliquot of samples were taken from both the donor and receiver chambers, and the apical and basolateral sides. Aliquots of 4 test compounds were pooled for each category: apical-donor, apical-receiver, basolateral-donor, basolateral-receiver. To measure CO and mass balance, initial donor samples from both apical and basolateral side were set aside from the assay plate. Acetonitrile twice the volume of pooled samples was added and mixed thoroughly, and precipitated proteins were removed by centrifugation at 20,000 r.c.f for 10 minutes.
To ascertain the MDCK monolayer integrity, the solution on apical side contained 100 µM Lucifer Yellow (Millipore-Sigma). After 90 minutes of compound transport, Lucifer Yellow concentration in the basal well was measured using SpectraMax M3 (Molecular Devices) set to an excitation wavelength of 430 nm and an emission wavelength of 540 nm.
Samples were analyzed with the 5500 QTRAP LC/MS/MS system (AB Sciex) with a 1200 series HPLC system (Agilent Technologies) including a degasser, an autosampler, and a binary pump. The liquid chromatography separation was performed on an Agilent SB-Aq column (4.6×50 mm, 5 μm) (Agilent Technologies) with mobile phase A (0.1% formic acid in water) and mobile phase B (0.1% formic acid in acetonitrile). The flow rate was 0.3 ml min^−1. The linear gradient was optimized for each compound. The autosampler was set at 5° C. The injection volume was 15 μL. Mass spectra were acquired with both positive electrospray ionization at the ion spray voltage of 5,500 V and negative electrospray ionization at the ion spray voltage of −4,500 V. The source temperature was 450° C. The curtain gas, ion source gas 1, and ion source gas 2 were 33, 50 and 65, respectively. Multiple reaction monitoring was used to quantify metabolites.
Efflux data calculations.

A375 cells = assay: 72-hour cell viability assay (Alamar Blue), A375; format: cell-based, human; details: for IC50: 72-hour incubation, Alamar Blue, V600E BRAF; for Emax: A-375, A375, 72-hour incubation
Protocol: Cell Culture and reagents. All cell lines were grown in a 37° C., 5% CO2, humidified environment, in media containing 1% penicillin/streptomycin. Cell culture conditions are as follows: MDCK cells transfected with MDR1 (or ABCB1) were obtained from the Netherlands Cancer Institute (Amsterdam, The Netherlands) and maintained in DMEM with 10% fetal bovine serum (FBS, Gemini). Traditional cell lines A375, CHL-1, B16F10, and U118MG were grown in DMEM with 10% FBS, SK-MEL-28, U87 and T98G in EMEM with 10% FBS, AM-38 in EMEM with 20% HI-FBS (Gibco), HT29 in McCoy's 5A with 10% FBS, HCT116 in RPMI with 10% FBS. Compounds were dissolved in DMSO (1% final concentration, Sigma-Aldrich) for cell culture studies.
Cell viability assays. Cells were harvested, seeded in a 96-well plate and allowed to adhere overnight. Compound was added to each well in DMSO (1% final concentration). Cells were incubated for 72 hours before viability was assessed by the Alamar Blue Assay. Raptinal ([…]) was used as a dead control.

T1 sequence (P08183 whole entry): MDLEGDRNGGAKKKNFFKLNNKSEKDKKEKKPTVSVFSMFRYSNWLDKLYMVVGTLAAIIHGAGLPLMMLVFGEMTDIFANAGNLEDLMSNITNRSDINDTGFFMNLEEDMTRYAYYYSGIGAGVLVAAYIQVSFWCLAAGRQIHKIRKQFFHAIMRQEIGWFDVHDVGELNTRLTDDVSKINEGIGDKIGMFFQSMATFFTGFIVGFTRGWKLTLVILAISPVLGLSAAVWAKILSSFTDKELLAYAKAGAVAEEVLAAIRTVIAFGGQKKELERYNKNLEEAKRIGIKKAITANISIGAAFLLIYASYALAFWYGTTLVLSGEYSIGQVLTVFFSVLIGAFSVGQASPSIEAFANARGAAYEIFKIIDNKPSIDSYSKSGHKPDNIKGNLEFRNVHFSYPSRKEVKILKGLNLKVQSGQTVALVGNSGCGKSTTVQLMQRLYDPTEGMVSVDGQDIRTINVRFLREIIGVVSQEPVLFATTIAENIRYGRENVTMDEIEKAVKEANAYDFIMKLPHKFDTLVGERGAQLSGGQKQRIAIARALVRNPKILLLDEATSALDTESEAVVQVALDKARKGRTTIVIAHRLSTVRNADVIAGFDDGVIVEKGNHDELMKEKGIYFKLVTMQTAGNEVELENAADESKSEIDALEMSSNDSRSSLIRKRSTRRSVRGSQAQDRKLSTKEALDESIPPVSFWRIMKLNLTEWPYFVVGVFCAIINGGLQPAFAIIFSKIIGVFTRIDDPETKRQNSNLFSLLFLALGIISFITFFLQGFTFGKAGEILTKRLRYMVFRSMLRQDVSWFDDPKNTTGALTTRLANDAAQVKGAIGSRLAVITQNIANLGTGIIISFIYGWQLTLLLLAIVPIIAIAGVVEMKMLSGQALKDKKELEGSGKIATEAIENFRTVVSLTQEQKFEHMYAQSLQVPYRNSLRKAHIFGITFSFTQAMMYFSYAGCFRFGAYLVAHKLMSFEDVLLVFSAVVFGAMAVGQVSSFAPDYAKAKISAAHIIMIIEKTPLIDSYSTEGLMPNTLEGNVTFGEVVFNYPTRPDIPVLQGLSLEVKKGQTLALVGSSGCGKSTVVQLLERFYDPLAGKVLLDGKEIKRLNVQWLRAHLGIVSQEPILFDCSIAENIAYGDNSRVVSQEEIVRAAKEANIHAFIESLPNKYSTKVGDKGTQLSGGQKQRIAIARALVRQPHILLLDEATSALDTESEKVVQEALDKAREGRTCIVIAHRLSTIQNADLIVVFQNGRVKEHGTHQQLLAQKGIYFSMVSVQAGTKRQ

For CC(C)(C)c1nc(-c2cccc(NS(=O)(=O)c3c(F)cccc3F)c2F)c(-c2ccnc(NCCCC(=O)O)n2)s1 [6-86, 4-((4-(2-(tert-butyl)-4-(3-((2,6-difluorophenyl)sulfonamido)-2-fluorophenyl)thiazol-5-yl)pyrimidin-2-yl)amino)butanoic acid], the “ER (efflux ratio)” value (P-gp; MDR1-MDCK) was 0.607 ± 0.16, the Papp A→B at 90 min, 10 µM (P-gp) was 0.844 ± 0.214 ×10⁻⁶ cm/s and the Papp B→A at 90 min, 10 µM (P-gp) was 0.445 ± 0.04 ×10⁻⁶ cm/s. The efflux ratio at 90 min, 10 µM (P-gp) was 0.61 ± 0.16, the IC50 (A375 cells) was 628 ± 105 nM and the IC50 (A375 cells; Homo sapiens, A-375, 72 h) was 628 ± 105 nM. For the same compound, the Emax (A375 cells; Homo sapiens) was 65%.

In the case of CC(C)(C)c1nc(-c2cccc(NS(=O)(=O)c3c(F)cccc3F)c2F)c(-c2ccnc(N[C@H]3CC[C@H](C(=O)O)CC3)n2)s1 [6-89, (1r,4r)-4-((4-(2-(tert-butyl)-4-(3-((2,6-difluorophenyl)sulfonamido)-2-fluorophenyl)thiazol-5-yl)pyrimidin-2-yl)amino)cyclohexane-1-carboxylic acid], the “Papp A-B” value (P-gp; MDR1-MDCK) is reported as 2.237 ± 0.126 ×10⁻⁶ cm/s, the “Papp B-A” value (P-gp; MDR1-MDCK) is reported as 1.251 ± 0.436 ×10⁻⁶ cm/s and the Papp A→B at 90 min, 10 µM (P-gp) is reported as 2.24 ± 0.126 ×10⁻⁶ cm/s. It also gave a Papp B→A at 90 min, 10 µM (P-gp) of 1.25 ± 0.436 ×10⁻⁶ cm/s, an efflux ratio at 90 min, 10 µM (P-gp) of 0.56 ± 0.18 and an IC50 (A375 cells) of 166 ± 4.09 nM. For the same compound, the IC50 (A375 cells; Homo sapiens, A-375, 72 h) was 166 ± 4.09 nM.

CC(C)(C)c1nc(-c2cccc(NS(=O)(=O)c3c(F)cccc3F)c2F)c(-c2ccnc(NCCCCc3nnn[nH]3)n2)s1 [6-121, N-(3-(5-(2-((4-(1H-tetrazol-5-yl)butyl)amino)pyrimidin-4-yl)-2-(tert-butyl)thiazol-4-yl)-2-fluorophenyl)-2,6-difluorobenzenesulfonamide] gave a Papp B→A at 90 min, 10 µM (P-gp) of 0.325 ± 0.124 ×10⁻⁶ cm/s, an IC50 (A375 cells; Homo sapiens, A-375, 72 h) of 1270 ± 54.4 nM and an Emax (A375 cells; Homo sapiens) of 60%.

With CC(C)(C)c1nc(-c2cccc(NS(=O)(=O)c3c(F)cccc3F)c2F)c(-c2ccnc(NCCCCC(=O)O)n2)s1 [6-83, 5-((4-(2-(tert-butyl)-4-(3-((2,6-difluorophenyl)sulfonamido)-2-fluorophenyl)thiazol-5-yl)pyrimidin-2-yl)amino)pentanoic acid] the “Papp A-B” value (P-gp; MDR1-MDCK) was 1.089 ± 0.097 ×10⁻⁶ cm/s, the “Papp B-A” value (P-gp; MDR1-MDCK) was 2.165 ± 0.371 ×10⁻⁶ cm/s and the Papp A→B at 90 min, 10 µM (P-gp) was 1.09 ± 0.097 ×10⁻⁶ cm/s. The Papp B→A at 90 min, 10 µM (P-gp) was 2.17 ± 0.371 ×10⁻⁶ cm/s, the efflux ratio at 90 min, 10 µM (P-gp) was 1.96 ± 0.22 and the IC50 (A375 cells) was 115 ± 9.85 nM. The IC50 (A375 cells; Homo sapiens, A-375, 72 h) was 115 nM and the Emax (A375 cells; Homo sapiens) was 65%.

CC(C)NCC(O)COc1cccc2ccccc12 (centres unmarked) [Propranolol, reference compound] gave an efflux ratio at 90 min, 10 µM (P-gp) of 1.18.

CC(C)(C)c1nc(-c2c(F)ccc(NS(=O)(=O)c3cc(C(F)(F)F)ccc3C(F)(F)F)c2F)c(-c2ccnc(N)n2)s1 [6-145, N-(3-(5-(2-aminopyrimidin-4-yl)-2-(tert-butyl)thiazol-4-yl)-2,4-difluorophenyl)-2,5-bis(trifluoromethyl)benzenesulfonamide] gave a Papp A→B at 90 min, 10 µM (P-gp) of 0.94 ± 0.05 ×10⁻⁶ cm/s, a Papp B→A at 90 min, 10 µM (P-gp) of 5.66 ± 0.19 ×10⁻⁶ cm/s and an efflux ratio at 90 min, 10 µM (P-gp) of 6.05 ± 0.5. For the same compound, the IC50 (A375 cells; Homo sapiens, A-375, 72 h) was > 3000 nM.

Compound CC(C)(C)c1nc(-c2cccc(NS(=O)(=O)c3c(F)cccc3F)c2F)c(-c2ccnc(N[C@@H]3CC[C@H](C(=O)O)C3)n2)s1 [6-91, (1S,3R)-3-((4-(2-(tert-butyl)-4-(3-((2,6-difluorophenyl)sulfonamido)-2-fluorophenyl)thiazol-5-yl)pyrimidin-2-yl)amino)cyclopentane-1-carboxylic acid] has a Papp A→B at 90 min, 10 µM (P-gp) of 0.493 ± 0.148 ×10⁻⁶ cm/s, a Papp B→A at 90 min, 10 µM (P-gp) of 0.626 ± 0.238 ×10⁻⁶ cm/s and an efflux ratio at 90 min, 10 µM (P-gp) of 1.3 ± 0.38. For the same compound, the IC50 (A375 cells; Homo sapiens, A-375, 72 h) was > 1000 nM.

CC(C)(C)c1nc(-c2cccc(NS(=O)(=O)c3ccc(F)cc3C(F)(F)F)c2F)c(-c2ccnc(N)n2)s1 [6-166, N-(3-(5-(2-aminopyrimidin-4-yl)-2-(tert-butyl)thiazol-4-yl)-2-fluorophenyl)-4-fluoro-2-(trifluoromethyl)benzenesulfonamide] was tested, and the IC50 (A375 cells; Homo sapiens, A-375, 72 h) was > 3000 nM.

With CC(C)(C)c1nc(-c2cccc(NS(=O)(=O)c3c(F)cccc3F)c2F)c(-c2ccnc(CCCCC(=O)O)n2)s1 [6-131, 5-(4-(2-(tert-butyl)-4-(3-((2,6-difluorophenyl)sulfonamido)-2-fluorophenyl)thiazol-5-yl)pyrimidin-2-yl)pentanoic acid] the Papp A→B at 90 min, 10 µM (P-gp) was 0.449 ± 0.008 ×10⁻⁶ cm/s, the Papp B→A at 90 min, 10 µM (P-gp) was 1.03 ± 0.166 ×10⁻⁶ cm/s and the efflux ratio at 90 min, 10 µM (P-gp) was 1.93 ± 0.08. The IC50 (A375 cells; Homo sapiens, A-375, 72 h) was 1580 ± 458 nM and the Emax (A375 cells; Homo sapiens) was 60%.

In the case of CC(C)(C)c1nc(-c2cccc(NS(=O)(=O)c3ccc(F)cc3C(F)(F)F)c2F)c(-c2ccnc(NCCCCC(=O)O)n2)s1 [6-181, 5-((4-(2-(tert-butyl)-4-(2-fluoro-3-((4-fluoro-2-(trifluoromethyl)phenyl)sulfonamido)phenyl)thiazol-yl)pyrimidin-2-yl)amino)pentanoic acid], the IC50 (A375 cells; Homo sapiens, A-375, 72 h) is reported as > 50000 nM.

In the case of CC(C)(C)c1nc(-c2c(F)ccc(NS(=O)(=O)c3cc(C(F)(F)F)ccc3C(F)(F)F)c2F)c(-c2ccnc(NCCCCC(=O)O)n2)s1 [6-150, 5-((4-(4-(3-((2,5-bis(trifluoromethyl)phenyl)sulfonamido)-2,6-difluorophenyl)-2-(tert-butyl)thiazol-5-yl)pyrimidin-2-yl)amino)pentanoic acid], the Papp A→B at 90 min, 10 µM (P-gp) is reported as 0.518 ×10⁻⁶ cm/s, the Papp B→A at 90 min, 10 µM (P-gp) is reported as 0.398 ± 0.149 ×10⁻⁶ cm/s and the efflux ratio at 90 min, 10 µM (P-gp) is reported as 0.6. For the same compound, the IC50 (A375 cells; Homo sapiens, A-375, 72 h) was > 50000 nM.

For CC(C)(C)c1nc(-c2cccc(NS(=O)(=O)c3c(F)cccc3F)c2F)c(-c2ccnc(CCC(=O)O)n2)s1 [6-97, 3-(4-(2-(tert-butyl)-4-(3-((2,6-difluorophenyl)sulfonamido)-2-fluorophenyl)thiazol-5-yl)pyrimidin-2-yl)propanoic acid], the Papp A→B at 90 min, 10 µM (P-gp) was 0.868 ± 0.021 ×10⁻⁶ cm/s, the Papp B→A at 90 min, 10 µM (P-gp) was 0.741 ± 0.156 ×10⁻⁶ cm/s and the efflux ratio at 90 min, 10 µM (P-gp) was 0.86 ± 0.19. For the same compound, the IC50 (A375 cells; Homo sapiens, A-375, 72 h) was > 1000 nM.

For CC(C)(C)c1nc(-c2c(F)ccc(NS(=O)(=O)c3ccc(F)cc3C(F)(F)F)c2F)c(-c2ccnc(N)n2)s1 [6-167, N-(3-(5-(2-aminopyrimidin-4-yl)-2-(tert-butyl)thiazol-4-yl)-2,4-difluorophenyl)-4-fluoro-2-(trifluoromethyl)benzenesulfonamide], the IC50 (A375 cells; Homo sapiens, A-375, 72 h) was > 3000 nM.

For CC(C)(C)c1nc(-c2c(F)ccc(NS(=O)(=O)c3ccc(F)cc3C(F)(F)F)c2F)c(-c2ccnc(NCCCCC(=O)O)n2)s1 [6-179, 5-((4-(2-(tert-butyl)-4-(2,6-difluoro-3-((4-fluoro-2-(trifluoromethyl)phenyl)sulfonamido)phenyl)thiazol-5-yl)pyrimidin-2-yl)amino)pentanoic acid], the Papp B→A at 90 min, 10 µM (P-gp) was 1.79 ± 0.064 ×10⁻⁶ cm/s and the IC50 (A375 cells; Homo sapiens, A-375, 72 h) was 14700 ± 6160 nM.

For CC(C)(C)c1nc(-c2cccc(NS(=O)(=O)c3cc(C(F)(F)F)ccc3C(F)(F)F)c2F)c(-c2ccnc(N)n2)s1 [6-163, N-(3-(5-(2-aminopyrimidin-4-yl)-2-(tert-butyl)thiazol-4-yl)-2-fluorophenyl)-2,5-bis(trifluoromethyl)benzenesulfonamide], the IC50 (A375 cells; Homo sapiens, A-375, 72 h) was > 3000 nM.

C=C[C@H]1C[N@@]2CC[C@H]1C[C@@H]2[C@@H](O)c1ccnc2ccc(OC)cc12 [Quinidine, reference compound] gave an efflux ratio at 90 min, 10 µM (P-gp) of 8.09.

For CC(C)(C)c1nc(-c2cccc(NS(=O)(=O)c3c(F)cccc3F)c2F)c(-c2ccnc(CCCCCC(=O)O)n2)s1 [6-193, 6-(4-(2-(tert-butyl)-4-(3-((2,6-difluorophenyl)sulfonamido)-2-fluorophenyl)thiazol-5-yl)pyrimidin-2-yl)hexanoic acid], the IC50 (A375 cells; Homo sapiens, A-375, 72 h) was 1750 ± 21.9 nM and the Emax (A375 cells; Homo sapiens) was 60%.
